Laboratory results published in ChEMBL document CHEMBL5131434, “Design and synthesis of novel orexin 2 receptor agonists based on naphthalene skeleton” (Bioorg Med Chem Lett, 2022).

How the values were obtained:
[1] = target: T1, Orexin/Hypocretin receptor type 1 (Homo sapiens, UniProt O43613); assay: Agonist activity at OX1R (unknown origin) expressed in CHO cells by cell-based calcium assay; assay type: functional
T1 sequence (O43613 whole entry): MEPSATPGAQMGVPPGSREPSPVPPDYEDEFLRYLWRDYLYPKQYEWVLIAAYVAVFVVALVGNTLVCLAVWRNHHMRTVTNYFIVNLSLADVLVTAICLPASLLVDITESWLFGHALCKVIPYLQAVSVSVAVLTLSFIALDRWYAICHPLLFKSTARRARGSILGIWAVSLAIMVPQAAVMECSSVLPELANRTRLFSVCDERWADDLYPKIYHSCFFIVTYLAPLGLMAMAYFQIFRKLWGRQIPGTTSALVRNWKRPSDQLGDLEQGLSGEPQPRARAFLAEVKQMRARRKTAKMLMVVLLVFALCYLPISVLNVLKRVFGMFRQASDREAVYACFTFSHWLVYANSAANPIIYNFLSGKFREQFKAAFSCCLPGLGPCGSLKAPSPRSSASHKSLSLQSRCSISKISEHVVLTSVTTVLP

Orexin receptor type 2 = target: T2, Orexin receptor type 2 (Homo sapiens, UniProt O43614); assay: Agonist activity at OX2R (unknown origin) expressed in CHO cells by cell-based calcium assay; assay type: functional
T2 sequence (O43614 whole entry): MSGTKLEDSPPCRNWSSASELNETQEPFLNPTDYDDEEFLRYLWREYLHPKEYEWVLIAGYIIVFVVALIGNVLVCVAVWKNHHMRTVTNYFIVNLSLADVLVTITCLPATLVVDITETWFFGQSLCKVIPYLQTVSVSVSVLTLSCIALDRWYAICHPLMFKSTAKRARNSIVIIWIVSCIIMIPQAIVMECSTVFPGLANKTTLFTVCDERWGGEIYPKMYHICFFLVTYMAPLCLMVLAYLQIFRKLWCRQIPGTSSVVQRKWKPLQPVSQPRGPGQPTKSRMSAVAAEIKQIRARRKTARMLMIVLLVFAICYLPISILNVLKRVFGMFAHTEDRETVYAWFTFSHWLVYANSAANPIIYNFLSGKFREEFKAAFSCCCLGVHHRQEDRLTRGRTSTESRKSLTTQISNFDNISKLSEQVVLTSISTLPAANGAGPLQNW

[2] = target: T1, Orexin/Hypocretin receptor type 1; assay: Antagonist activity at human OX1R expressed in CHO-K1 cells assessed as inhibition of orexin-A-induced increase in calcium mobilization preincubated for 15 mins followed orexin-A stimulation by Fura-2-AM dye based fluorescence assay
[3] = target: T3, Orexin/Hypocretin receptor type 1 (Homo sapiens) (UniProt O43613); assay: Agonist activity at OX1R (unknown origin) expressed in CHO cells at 10 uM by cell-based calcium assay relative to Orexin A; assay type: functional
T3 sequence (whole entry): T1 sequence (O43613 whole entry)

[4] = target: T4, Orexin receptor type 2 (Homo sapiens) (UniProt O43614); assay: Agonist activity at OX2R (unknown origin) expressed in CHO cells at 10 uM by cell-based calcium assay relative to orexin A; assay type: functional
T4 sequence (whole entry): T2 sequence (O43614 whole entry)

Homo sapiens = organism: Homo sapiens; assay: Selectivity ratio of EC50 for agonist activity at human OX1R expressed in CHO-K1 cells to EC50 for agonist activity at human OX2R expressed in CHO-K1 cells; assay type: cell-based

Compound	EC50 [1] [µM]	EC50 (Orexin receptor type 2) [µM]	Ki [2] [µM]	Efficacy [3] [%]	Efficacy [4] [%]	Ratio EC50 (Homo sapiens)
COc1ccccc1C(=O)N(C)c1cccc2ccc(NS(=O)(=O)c3cc(-c4cccc(C(=O)N(C)C)c4)ccc3OC)cc12	> 10	> 10	–	–	–	–
COc1ccc(C(=O)Nc2cccc([C@]3(C)O[C@@H]4CO[C@H]5N4[C@@H]3O[C@@]5(C)c3cccc(NC(=O)c4ccc(OC)cc4)c3)c2)cc1	–	–	0.00523	–	–	–
COc1ccc(-c2cccc(C(=O)N(C)C)c2)cc1S(=O)(=O)Nc1ccc2ccc(NC(=O)c3ccccc3)cc2c1	> 10	> 10	–	< 5	< 5	–
COc1ccc(C(=O)Nc2cccc([C@]3(C)O[C@H]4CO[C@@H]5N4[C@H]3O[C@@]5(C)c3cccc(NC(=O)c4ccc(OC)cc4)c3)c2)cc1	–	–	0.00217	–	–	–
COC(=O)N1CCC[C@H](NS(C)(=O)=O)[C@@H]1CO[C@H]1CC[C@@H](c2ccccc2)CC1	–	–	–	–	–	> 5000
COc1ccc(-c2cccc(C(=O)N(C)C)c2)cc1S(=O)(=O)Nc1ccc2ccc(N(C)C(=O)c3ccccc3)cc2c1	> 10	> 10	–	< 5	< 5	–
